Columns and labels:
[1] = LNP characterization: size and PDI by dynamic light scattering, mRNA encapsulation efficiency by RiboGreen assay; type: physicochemical
Description: Particle sizes and “polydispersity index” (PDI) of the lipid particle were measured by dynamic light scattering (DLS). PDI indicates the width of the particle distribution. This is a parameter calculated from a cumulative analysis of the (DLS)-measured intensity autocorrelation function assuming a single particle size mode and a single exponential fit to the autocorrelation function. […] The particles produced by mechanical micromixers such as the NanoAssemblr® Spark™ and NanoAssemblr® Benchtop (Precision NanoSystems Inc.) are substantially homogeneous in size assuming all other variables are neutral. A lower PDI indicates a more homogenous population of lipid particles. The Spark™ instrument is used in a screening setting to identify the lead compositions. Once the composition is selected, the lipid particle can be fine-tuned using the NanoAssemblr® Benchtop. Once the process parameters Flow Rate Ratio and Total Flow Rate is identified for the specific nanoparticle composition, the nanoparticle technology can be scaled up using the same process parameter values.
Lipid particles were also manufactured by a larger microfluidic mixer instrument, the NanoAssemblr® Ignite™ for testing. Briefly, 350 μL of mRNA was diluted using 100 mM sodium acetate buffer to the required concentration of 0.2 to 0.3 mg/mL. Lipid particle samples were then prepared by running both fluids, namely, nucleic acids in aqueous solvent and Lipid Mix in ethanol at a flow ratio of 3:1 and at a total flow rate of 12 ml/min in the microfluidic mixer. Following mixing in the microfluidic device, the post cartridge lipid nucleic acid particle sample was diluted into RNAse free tubes containing three to 40 volumes of phosphate buffered saline (PBS), pH 7.4. Ethanol was finally removed through dialysis in PBS, pH 7, or using Amicon™ centrifugal filters (Millipore, USA) at 3000 RPM, or using TFF systems. Once the required concentration was achieved, the lipid nucleic acid particles were filter sterilized using 0.2 μm filters in aseptic conditions. Final encapsulation efficiency was measured by the Ribogreen™ assay. Quant-iT™ RiboGreen® RNA Reagent and Kit (Invitrogen) following manufacturer directions.
Messenger RNA or plasmid nucleic acid therapeutic (NAT) as described below, was diluted using sodium acetate buffer to the required concentration. Lipid nucleic acid particle (LNAP) samples were then prepared by running both fluids using the NanoAssemblr® Spark instrument. Briefly, […] of nucleic acids in 100 mM sodium acetate buffer in a total volume of 32 μL was mixed with 16 μL of 37.5 mM lipid mix solution as required by the N/P ratios (4, 6, or 10 in illustrated examples). The microfluidically mixed lipid nucleic acid particles (LNAP) made in the instrument were immediately diluted down with 48 μL Ca++ and Mg++ free 1× PBS at pH 7.4 in the aqueous output well. These LNAP were immediately collected into microcentrifuge tubes containing 96 μL of the same buffer at pH 7.4. Encapsulation efficiency was measured by a modified Ribogreen™ assay (Quanti-iT RiboGreen™ RNA assay kit, Fisher). This information was used to establish the desired dosage.
After the lipid particles were made as described in Example 17, particle size (hydrodynamic diameter of the particles) was determined by Dynamic Light Scattering (DLS) using a ZetaSizer™ Nano ZS™ (Malvern Instruments, UK). He/Ne laser of 633 nm wavelength was used as the light source. Data were measured from the scattered intensity data conducted in backscattering detection mode (measurement angle=173). Measurements were an average of 10 runs of two cycles each per sample. Z-Average size was reported as the particle size, and is defined as the harmonic intensity averaged particle diameter. These LNP characteristics, as well as the results of the mRNA encapsulation efficiency for various Lipid Mixes are also described in the application are shown in Tables 4, 5 and 6. […]

primary human T cells = assay: EPO mRNA LNP delivery to primary human T cells, Quantikine IVD Human Epo ELISA; type: cell-based
Description: Reagents were acquired from Quantikine, Minneapolis, MN. The assay was performed as directed on the Quantikine® IVD® ELISA Human Erythropoietin Immunoassay protocol in the package insert. Briefly; primary human T cells were isolated from fresh whole blood using a negative selection protocol and activated using a triple activator. Seven days post-activation, T cells were dosed with mRNA LNPs encoding EPO at […] mRNA per 500,000 cells and N/P 10. After 48 h of exposure, the T cells were harvested and lysed for cytosolic EPO and media supernatant was sampled for secreted EPO. Quantikine® Human Serum Controls were used.

[2] = 5-moU EPO encoded LNPs, IL:DSPC:cholesterol:DMG-PEG (50:10:38.5:1.5), N/P 6
[3] = OVA encoded LNPs, payload 5-moU OVA, LM02, N/P 8
[4] = OVA encoded LNPs, payload WT OVA, LM02, N/P 8
[5] = Table 4 LNPs, payload and lipid mix not stated

- Diameter (Z. ave, nm) [1, 2]: 65.1 nm
- Encapsulation Efficiency (%) [1, 2]: 98.8%
- Polydispersity Index (PDI) [1, 2]: 0.04
- Diameter (Z. ave, nm) [1, 3]: 65.8 nm
- Encapsulation Efficiency (%) [1, 3]: 95.2%
- Polydispersity Index (PDI) [1, 3]: 0.07
- Diameter (Z. ave, nm) [1, 4]: 67.5 nm
- Encapsulation Efficiency (%) [1, 4]: 95.4%
- Polydispersity Index (PDI) [1, 4]: 0.03
- Diameter (Z. ave, nm) [1, 5]: 77.2 nm
- Encapsulation Efficiency (%) [1, 5]: 88.6%
- Polydispersity Index (PDI) [1, 5]: 0.07
Compound: CCCCC/C=C\C/C=C\CCCCCCCCC(CCCCCCCC/C=C\C/C=C\CCCCC)OC(=O)CCCN(C)C [MC3, DLin-MC3-DMA, reference compound]
- cytosolic EPO (primary human T cells; T cell lysate, 48 h exposure, N/P 10, FIG. 5): no cytosolic EPO
- secreted EPO (primary human T cells; media supernatant, 48 h exposure, N/P 10, FIG. 5): about 545 mlU/mL
- Fold increase in EPO concentration relative to MC3 (primary human T cells; primary human T cells, 48 hours): 1.0
- EPO concentration (mIU/mL), 48 hours (primary human T cells; primary human T cells, 48 hours, EPO mRNA LNP, N/P 10): 545.2 mIU/mL
